Data: the supplement of paper PMC10307832

Columns and labels:
Test in all cases: relative viability (nuclei count vs DMSO), 5 days (fraction); higher = more cells survive
[1] = compound: C1=CC2=NC=CN=C2C=C1/C=C/3\C(=O)NC(=O)S3 + COc1cc2c(Oc3ccc(NC(=O)C4(C(=O)Nc5ccc(F)cc5)CC4)cc3F)ccnc2cc1OCCCN1CCOCC1 [Foretinib] (partner 0.25 µM)
In short: (§1)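 Values are medians from duplicate plates. Each reflects relative viability, defined as the nuclei count of treated wells over that of vehicle wells. Lung cancer cell lines in 1536-well plates were pin-tool dosed one day after seeding with one drug alone or with a fixed anchor-drug dose plus five library-drug doses (not always all listed) in √10 steps, then fixed, stained and imaged at 4× after 5 days.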

[2] = compound: CCN1CCN(c2ccc(Nc3cc(N(C)C(=O)Nc4c(Cl)c(OC)cc(OC)c4Cl)ncn3)cc2)CC1 [BGJ398] + COc1cccc2cc(-c3nc([C@H]4CC[C@H](C(=O)O)CC4)n4ncnc(N)c34)[nH]c12 [OSI-027] (partner 0.5 µM)
In short: as §1

[3] = compound: CCN1CCN(c2ccc(Nc3cc(N(C)C(=O)Nc4c(Cl)c(OC)cc(OC)c4Cl)ncn3)cc2)CC1 [BGJ398] + Nc1nc2[nH]cc(CCc3ccc(C(=O)N[C@@H](CCC(=O)O)C(=O)O)cc3)c2c(=O)[nH]1 [Pemetrexed] (partner 0.2 µM)
In short: as §1

[4] = compound: CCN1CCN(c2ccc(Nc3cc(N(C)C(=O)Nc4c(Cl)c(OC)cc(OC)c4Cl)ncn3)cc2)CC1 [BGJ398] + CS(=O)(=O)CCNCc1ccc(-c2ccc3ncnc(Nc4ccc(OCc5cccc(F)c5)c(Cl)c4)c3c2)o1 [Lapatinib] (partner 2 µM)
In short: as §1

Cell Line	relative viability ([1]; first compound 0.02 µM)	relative viability ([1]; first compound 0.06325 µM)	relative viability ([1]; first compound 0.2 µM)	relative viability ([1]; first compound 0.6325 µM)	relative viability ([1]; first compound 2 µM)	relative viability ([2]; first compound 0.01 µM)	relative viability ([2]; first compound 0.03162 µM)	relative viability ([2]; first compound 0.1 µM)	relative viability ([2]; first compound 0.3162 µM)	relative viability ([2]; first compound 1 µM)	relative viability ([3]; first compound 0.01 µM)	relative viability ([3]; first compound 0.03162 µM)	relative viability ([3]; first compound 0.1 µM)	relative viability ([3]; first compound 0.3162 µM)	relative viability ([3]; first compound 1 µM)	relative viability ([4]; first compound 0.01 µM)	relative viability ([4]; first compound 0.03162 µM)	relative viability ([4]; first compound 0.1 µM)	relative viability ([4]; first compound 0.3162 µM)	relative viability ([4]; first compound 1 µM)
ChaGo-K-1	0.83	0.673	0.922	0.844	0.95	0.512	0.491	0.567	0.548	0.435	0.261	0.249	0.242	0.269	0.281	–	–	–	–	–
EBC-1	–	0.105	0.0907	0.0919	0.11	–	–	–	–	–	–	–	–	–	–	0.215	0.222	0.178	0.23	0.21
EKVX	0.753	0.602	0.773	0.541	0.746	0.628	0.679	0.72	0.703	0.69	0.385	0.403	0.452	0.38	0.378	0.178	0.199	0.204	0.201	0.169
EMC-BAC-2	1.04	1.07	1.05	0.903	0.923	0.357	0.417	0.398	0.333	0.37	0.432	0.483	0.477	0.477	0.471	0.872	0.982	0.899	0.832	0.838
EPLC-272H	0.846	0.693	0.696	0.664	0.611	0.283	0.279	0.248	0.241	0.293	0.32	0.447	0.317	0.289	0.418	1.13	0.814	0.833	0.748	0.497
H3255	0.786	0.968	0.881	0.899	0.965	0.493	–	0.676	0.37	0.602	0.608	0.434	0.604	0.509	0.629	0.288	–	0.238	0.241	0.219
HARA	0.857	0.83	0.888	0.841	1.02	0.422	0.32	0.506	0.358	0.439	0.237	0.22	0.215	0.273	0.248	0.67	0.531	0.472	0.362	0.217
HCC-15	0.981	1.02	1.01	1.03	0.928	0.689	0.72	0.693	0.675	0.554	0.262	0.232	0.219	0.223	0.221	0.854	0.855	0.82	0.969	0.974
HCC-44	–	–	–	–	–	0.6	0.591	0.598	0.51	0.473	0.6	0.67	0.656	0.649	0.654	0.973	1.01	1.01	1.04	0.993
